Source: the kinase profiling compilation of Christmann-Franck et al. (2016)

Experiments:
Test in all cases: radiometric filter-binding kinase assay, Kinaseprofiler
[1] = biological target: CAMK1D (human) (UniProt Q8IU85); settings: compound 10.0 µM; ATP 15 µM
[2] = biological target: MAPK10 (human) (UniProt P53779); settings: ATP 10 µM
[3] = biological target: HIPK3 (human) (UniProt Q9H422); settings: compound 10.0 µM; ATP 15 µM
[4] = biological target: PTK2B (human) (UniProt Q14289); settings: compound 10.0 µM; ATP 90 µM
[5] = biological target: MAP2K7 (human) (UniProt O14733); settings: compound 10.0 µM; ATP 10 µM
[6] = biological target: PRKX (human) (UniProt P51817); settings: compound 10.0 µM; ATP 200 µM
[7] = biological target: JAK2 JH1 catalytic (human) (UniProt O60674); settings: compound 10.0 µM; ATP 45 µM
[8] = test system: HIPK2 (human), Q9H2X6 [I471N]; settings: compound 10.0 µM; ATP 10 µM
[9] = biological target: CDK7 CCNH MNAT1 (human) (UniProt P50613+P51948+P51946); settings: ATP 90 µM
CDK7 CCNH MNAT1 (human), sequence (P50613 whole entry, looked up): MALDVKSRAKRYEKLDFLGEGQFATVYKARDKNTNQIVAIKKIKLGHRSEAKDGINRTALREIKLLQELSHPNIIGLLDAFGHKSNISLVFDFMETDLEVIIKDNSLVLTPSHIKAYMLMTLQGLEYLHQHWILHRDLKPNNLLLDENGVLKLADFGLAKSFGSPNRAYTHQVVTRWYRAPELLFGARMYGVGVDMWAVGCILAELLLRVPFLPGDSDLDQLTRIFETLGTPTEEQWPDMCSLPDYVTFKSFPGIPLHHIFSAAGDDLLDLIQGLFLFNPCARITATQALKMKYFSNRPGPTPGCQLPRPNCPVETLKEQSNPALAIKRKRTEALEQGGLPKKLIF
CDK7 CCNH MNAT1 (human), sequence (P51946 whole entry, looked up): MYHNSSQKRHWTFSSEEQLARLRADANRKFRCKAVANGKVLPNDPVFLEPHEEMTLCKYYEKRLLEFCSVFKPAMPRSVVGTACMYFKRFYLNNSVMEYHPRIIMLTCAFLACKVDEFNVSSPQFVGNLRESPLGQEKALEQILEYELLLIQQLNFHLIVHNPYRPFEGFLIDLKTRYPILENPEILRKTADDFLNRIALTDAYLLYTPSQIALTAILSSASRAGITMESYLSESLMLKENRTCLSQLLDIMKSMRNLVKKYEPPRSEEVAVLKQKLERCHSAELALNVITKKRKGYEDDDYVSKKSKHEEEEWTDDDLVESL
CDK7 CCNH MNAT1 (human), sequence (P51948 whole entry, looked up): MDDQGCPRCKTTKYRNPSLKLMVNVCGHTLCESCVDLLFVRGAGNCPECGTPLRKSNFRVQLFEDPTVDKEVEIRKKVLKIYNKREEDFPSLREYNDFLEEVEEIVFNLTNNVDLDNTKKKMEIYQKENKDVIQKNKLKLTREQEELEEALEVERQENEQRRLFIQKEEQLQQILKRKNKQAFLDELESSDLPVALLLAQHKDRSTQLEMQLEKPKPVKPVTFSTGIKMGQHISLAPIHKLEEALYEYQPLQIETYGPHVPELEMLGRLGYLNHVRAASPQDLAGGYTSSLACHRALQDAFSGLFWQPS

[10] = biological target: MAPK1 (human) (UniProt P28482); settings: compound 10.0 µM; ATP 155 µM
[11] = biological target: TSSK2 (human) (UniProt Q96PF2); settings: compound 10.0 µM; ATP 15 µM
TSSK2 (human), sequence (Q96PF2 whole entry, looked up): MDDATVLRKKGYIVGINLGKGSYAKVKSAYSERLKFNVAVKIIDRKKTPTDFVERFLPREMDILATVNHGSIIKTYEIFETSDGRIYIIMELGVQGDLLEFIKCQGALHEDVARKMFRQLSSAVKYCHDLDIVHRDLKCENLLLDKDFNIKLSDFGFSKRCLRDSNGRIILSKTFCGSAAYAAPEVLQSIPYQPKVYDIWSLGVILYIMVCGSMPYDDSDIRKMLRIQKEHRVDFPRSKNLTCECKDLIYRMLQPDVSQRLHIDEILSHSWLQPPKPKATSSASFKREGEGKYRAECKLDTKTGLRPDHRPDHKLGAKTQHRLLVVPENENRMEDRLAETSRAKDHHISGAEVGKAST

[12] = biological target: PAK4 (human) (UniProt O96013); settings: compound 10.0 µM; ATP 10 µM
[13] = biological target: CDK3 CCNE1 (human) (UniProt Q00526+P24864); settings: ATP 200 µM
CDK3 CCNE1 (human), sequence (P24864 whole entry, looked up): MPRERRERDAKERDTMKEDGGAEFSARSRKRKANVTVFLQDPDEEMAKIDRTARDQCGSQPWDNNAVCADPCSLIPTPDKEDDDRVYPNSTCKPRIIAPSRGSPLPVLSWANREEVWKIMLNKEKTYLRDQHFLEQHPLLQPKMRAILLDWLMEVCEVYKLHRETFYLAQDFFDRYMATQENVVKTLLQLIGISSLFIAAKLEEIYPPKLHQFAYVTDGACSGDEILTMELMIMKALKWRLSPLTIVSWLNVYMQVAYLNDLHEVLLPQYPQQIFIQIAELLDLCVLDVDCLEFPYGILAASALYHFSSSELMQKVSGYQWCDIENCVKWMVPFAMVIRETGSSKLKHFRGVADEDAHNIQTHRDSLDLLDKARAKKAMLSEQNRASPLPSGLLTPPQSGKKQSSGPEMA
CDK3 CCNE1 (human), sequence (Q00526 whole entry, looked up): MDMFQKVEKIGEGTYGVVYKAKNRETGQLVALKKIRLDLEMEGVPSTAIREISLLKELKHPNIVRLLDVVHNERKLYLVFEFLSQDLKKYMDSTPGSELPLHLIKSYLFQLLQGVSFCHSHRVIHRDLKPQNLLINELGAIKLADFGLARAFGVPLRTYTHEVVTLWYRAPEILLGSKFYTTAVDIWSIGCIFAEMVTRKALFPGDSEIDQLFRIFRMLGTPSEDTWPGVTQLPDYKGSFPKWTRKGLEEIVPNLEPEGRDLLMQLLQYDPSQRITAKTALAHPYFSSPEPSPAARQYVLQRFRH

[14] = biological target: EPHA1 (human) (UniProt P21709); settings: compound 10.0 µM; ATP 45 µM
[15] = biological target: CDK2 CCNA2 (human) (UniProt P24941+P20248); settings: ATP 45 µM
[16] = biological target: KDR (human) (UniProt P35968); settings: compound 10.0 µM; ATP 90 µM
[17] = biological target: STK24 (human) (UniProt Q9Y6E0); settings: compound 10.0 µM; ATP 15 µM
[18] = biological target: TBK1 (human) (UniProt Q9UHD2); settings: compound 1.0 µM; ATP 155 µM
[19] = biological target: MARK2 (human) (UniProt Q7KZI7); settings: compound 10.0 µM; ATP 15 µM
[20] = biological target: LYN (human) (UniProt P07948); settings: compound 10.0 µM; ATP 70 µM
[21] = test system: PRKD1 (human), Q15139 [R135A]; settings: compound 10.0 µM; ATP 45 µM
[22] = test system: FLT4 (human), P35916 [V1128L/H1146R]; settings: compound 1.0 µM; ATP 200 µM
[23] = biological target: RPS6KA4 KD1 KD2 (human) (UniProt O75676); settings: ATP 45 µM
RPS6KA4 KD1 KD2 (human), sequence (O75676 whole entry, looked up): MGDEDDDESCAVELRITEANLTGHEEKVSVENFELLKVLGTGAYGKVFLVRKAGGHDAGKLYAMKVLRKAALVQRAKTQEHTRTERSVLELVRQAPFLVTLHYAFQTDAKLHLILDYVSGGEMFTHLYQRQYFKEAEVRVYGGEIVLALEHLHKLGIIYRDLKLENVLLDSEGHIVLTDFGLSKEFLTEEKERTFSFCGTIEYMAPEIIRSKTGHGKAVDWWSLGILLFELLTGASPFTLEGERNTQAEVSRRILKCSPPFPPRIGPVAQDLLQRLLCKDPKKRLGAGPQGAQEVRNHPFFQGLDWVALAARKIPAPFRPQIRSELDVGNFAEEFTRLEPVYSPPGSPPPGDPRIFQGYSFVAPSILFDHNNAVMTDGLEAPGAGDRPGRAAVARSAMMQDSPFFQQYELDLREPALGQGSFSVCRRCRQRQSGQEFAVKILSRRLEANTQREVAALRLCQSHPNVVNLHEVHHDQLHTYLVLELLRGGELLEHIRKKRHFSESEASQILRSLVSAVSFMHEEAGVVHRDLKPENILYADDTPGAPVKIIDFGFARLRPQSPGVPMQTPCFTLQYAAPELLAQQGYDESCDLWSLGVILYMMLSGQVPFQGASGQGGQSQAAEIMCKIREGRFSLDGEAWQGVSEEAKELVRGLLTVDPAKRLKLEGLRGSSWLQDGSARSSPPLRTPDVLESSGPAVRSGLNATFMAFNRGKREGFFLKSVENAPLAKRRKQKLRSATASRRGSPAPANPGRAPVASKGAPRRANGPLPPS

[24] = biological target: STK33 (human) (UniProt Q9BYT3); settings: compound 10.0 µM; ATP 155 µM
[25] = biological target: INSR (human) (UniProt P06213); settings: compound 10.0 µM; ATP 45 µM
[26] = biological target: DYRK2 (human) (UniProt Q92630); settings: compound 10.0 µM; ATP 15 µM
[27] = biological target: PRKD2 (human) (UniProt Q9BZL6); settings: compound 10.0 µM; ATP 155 µM
[28] = biological target: MAPK8 (human) (UniProt P45983); settings: ATP 45 µM
[29] = biological target: PRKCA (human) (UniProt P17252); settings: compound 10.0 µM; ATP 45 µM
[30] = biological target: RPS6KA5 KD1 KD2 (human) (UniProt O75582); settings: compound 10.0 µM; ATP 90 µM
[31] = biological target: NTRK2 (human) (UniProt Q16620); settings: ATP 90 µM
[32] = biological target: CDK1 CCNB1 (human) (UniProt P06493+P14635); settings: compound 10.0 µM; ATP 45 µM
[33] = biological target: TNK2 (human) (UniProt Q07912); settings: ATP 70 µM
TNK2 (human), sequence (Q07912 whole entry, looked up): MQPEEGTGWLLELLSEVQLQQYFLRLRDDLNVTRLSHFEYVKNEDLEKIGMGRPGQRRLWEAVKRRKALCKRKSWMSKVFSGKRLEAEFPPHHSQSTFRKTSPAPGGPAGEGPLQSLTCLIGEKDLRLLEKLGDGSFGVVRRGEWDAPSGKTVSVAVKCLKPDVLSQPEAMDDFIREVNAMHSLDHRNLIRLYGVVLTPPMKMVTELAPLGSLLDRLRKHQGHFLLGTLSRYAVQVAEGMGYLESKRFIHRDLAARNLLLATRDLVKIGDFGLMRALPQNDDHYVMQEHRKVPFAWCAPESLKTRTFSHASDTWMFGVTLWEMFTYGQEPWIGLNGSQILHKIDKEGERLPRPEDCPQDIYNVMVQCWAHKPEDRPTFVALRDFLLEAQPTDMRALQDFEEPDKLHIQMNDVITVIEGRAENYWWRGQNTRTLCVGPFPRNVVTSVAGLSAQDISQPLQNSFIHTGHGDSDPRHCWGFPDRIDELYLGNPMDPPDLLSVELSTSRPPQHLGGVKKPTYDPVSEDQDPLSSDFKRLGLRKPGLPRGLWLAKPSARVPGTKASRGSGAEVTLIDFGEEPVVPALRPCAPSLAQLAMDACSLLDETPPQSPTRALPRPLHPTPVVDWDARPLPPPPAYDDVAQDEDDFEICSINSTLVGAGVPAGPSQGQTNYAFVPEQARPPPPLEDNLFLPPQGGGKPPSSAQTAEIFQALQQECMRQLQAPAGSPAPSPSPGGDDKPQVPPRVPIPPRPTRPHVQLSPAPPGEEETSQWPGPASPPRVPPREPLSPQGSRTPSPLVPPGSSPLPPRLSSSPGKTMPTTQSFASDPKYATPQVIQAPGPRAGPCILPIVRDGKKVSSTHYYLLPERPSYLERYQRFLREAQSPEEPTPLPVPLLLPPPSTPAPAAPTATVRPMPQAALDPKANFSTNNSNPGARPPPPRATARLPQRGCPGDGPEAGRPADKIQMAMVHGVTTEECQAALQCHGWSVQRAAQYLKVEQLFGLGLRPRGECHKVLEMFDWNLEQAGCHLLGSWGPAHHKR

[34] = biological target: AURKB (human) (UniProt Q96GD4); settings: ATP 10 µM
AURKB (human), sequence (Q96GD4 whole entry, looked up): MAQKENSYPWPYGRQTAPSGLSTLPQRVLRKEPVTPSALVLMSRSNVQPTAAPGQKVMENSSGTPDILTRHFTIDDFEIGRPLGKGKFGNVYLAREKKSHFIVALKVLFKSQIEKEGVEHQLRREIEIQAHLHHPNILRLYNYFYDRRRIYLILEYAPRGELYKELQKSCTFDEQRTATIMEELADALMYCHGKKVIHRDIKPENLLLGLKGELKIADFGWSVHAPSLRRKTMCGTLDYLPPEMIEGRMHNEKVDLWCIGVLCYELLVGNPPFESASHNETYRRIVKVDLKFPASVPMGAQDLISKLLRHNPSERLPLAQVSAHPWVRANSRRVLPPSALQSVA

[35] = biological target: ACVR1B (human) (UniProt P36896); settings: compound 10.0 µM; ATP 10 µM
[36] = biological target: SIK1 (human) (UniProt P57059); settings: ATP 45 µM
SIK1 (human), sequence (P57059 whole entry, looked up): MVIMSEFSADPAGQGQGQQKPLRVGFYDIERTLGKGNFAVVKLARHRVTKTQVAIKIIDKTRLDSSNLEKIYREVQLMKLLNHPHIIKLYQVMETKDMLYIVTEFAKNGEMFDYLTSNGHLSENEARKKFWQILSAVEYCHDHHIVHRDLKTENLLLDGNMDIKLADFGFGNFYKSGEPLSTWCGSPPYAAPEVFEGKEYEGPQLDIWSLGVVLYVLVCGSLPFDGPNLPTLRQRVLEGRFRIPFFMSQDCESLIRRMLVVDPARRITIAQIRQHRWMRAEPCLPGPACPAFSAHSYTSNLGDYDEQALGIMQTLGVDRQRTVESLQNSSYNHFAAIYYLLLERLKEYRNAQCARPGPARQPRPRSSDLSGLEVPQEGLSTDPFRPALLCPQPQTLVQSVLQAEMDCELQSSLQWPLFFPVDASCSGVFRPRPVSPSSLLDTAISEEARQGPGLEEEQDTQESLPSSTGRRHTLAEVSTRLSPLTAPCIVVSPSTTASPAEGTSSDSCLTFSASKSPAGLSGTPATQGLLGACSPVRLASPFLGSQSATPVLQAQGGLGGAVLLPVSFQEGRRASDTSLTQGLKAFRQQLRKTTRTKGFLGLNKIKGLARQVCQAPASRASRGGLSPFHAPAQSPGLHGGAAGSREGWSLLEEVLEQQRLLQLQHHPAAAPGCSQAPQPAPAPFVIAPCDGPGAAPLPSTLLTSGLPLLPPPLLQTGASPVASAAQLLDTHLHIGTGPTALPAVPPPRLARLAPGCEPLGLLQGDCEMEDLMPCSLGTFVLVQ

Compound: COC(=O)[C@]1(O)C[C@@H]2O[C@@]1(C)n1c3ccccc3c3c4c(c5c6ccccc6n2c5c31)C(=O)NC4
- residual activity [1]: 0%
- residual activity ([2]; compound 1.0 µM): -3%
- residual activity ([2]; compound 10.0 µM): -1%
- residual activity [3]: -4%
- residual activity [4]: -1%
- residual activity [5]: 0%
- residual activity [6]: 0%
- residual activity [7]: -1%
- residual activity [8]: -1%
- residual activity ([9]; compound 1.0 µM): 55%
- residual activity ([9]; compound 10.0 µM): 16%
- residual activity [10]: -3%
- residual activity [11]: 0%
- residual activity [12]: 0%
- residual activity ([13]; compound 1.0 µM): 27%
- residual activity ([13]; compound 10.0 µM): 2%
- residual activity [14]: 0%
- residual activity ([15]; compound 1.0 µM): 1%
- residual activity ([15]; compound 10.0 µM): 0%
- residual activity [16]: 0%
- residual activity [17]: 0%
- residual activity [18]: -1%
- residual activity [19]: -2%
- residual activity [20]: 0%
- residual activity [21]: 0%
- residual activity [22]: 0%
- residual activity ([23]; compound 1.0 µM): -1%
- residual activity ([23]; compound 10.0 µM): 0%
- residual activity [24]: 0%
- residual activity [25]: 0%
- residual activity [26]: -4%
- residual activity [27]: 0%
- residual activity ([28]; compound 1.0 µM): -12%
- residual activity ([28]; compound 10.0 µM): -20%
- residual activity [29]: 0%
- residual activity [30]: 0%
- residual activity ([31]; compound 1.0 µM): 0%
- residual activity ([31]; compound 10.0 µM): 0%
- residual activity [32]: -1%
- residual activity ([33]; compound 1.0 µM): 0%
- residual activity ([33]; compound 10.0 µM): 0%
- residual activity ([34]; compound 1.0 µM): 0%
- residual activity ([34]; compound 10.0 µM): 0%
- residual activity [35]: 0%
- residual activity ([36]; compound 1.0 µM): 0%
- residual activity ([36]; compound 10.0 µM): 0%
